The record followed here is patent US20150359812A1, “PROPHYLACTIC/THERAPEUTIC AGENT FOR DRY EYE” (priority 2012, published 2015).

Series [1] relates to lacrimal cells. Description: Absorption test of anthocyanins into lacrimal cells (HPLC). It is filed as in vitro ADME. To be noted: 100 μM, 30 minutes at 37 degrees Celsius, compared with D3G and D3R. The procedure: The test was done in the following way. Each anthocyanin (of delphinidin-3,5-diglucoside, delphinidin-3-O-glucoside and delphinidin-3-Orutinoside) was added to the lachrymal-cells suspension at the final concentration of 100 μM.
After that, the suspension was incubated for 30 minutes at 37 degrees Celsius. Then, the cells were washed and suspended again in the buffer. Thus, the amount of anthocyanin was analyzed by HPLC. The analysis is as follows.
The condition of HPLC is as follows:
Column: YMC UltraHT Pro C18 dia.2.0×100 mm
Column temperature: 30 degrees Celsius
Eluent: A=0.3% TFA aqueous solution, B=acetonitrile
Flow rate: 0.3 mL/min, Injection volume: 50 μL
Quantitative limit: 2 ng/mL (cyaniding-3-O-glucoside)

For series [2], the system named is radical oxygen species in lacrimal gland tissue. The series is described as follows: Inhibitory action to radical oxygen species using isolated lacrimal glands of mice (DCFH-DA fluorescence). It is filed as cell-based. To be noted: for inhibition of radical oxygen in lacrimal cells, FIG. 12: comparison of delphinidin glycosides; for inhibition of radical oxygen by isolated delphinidin glycosides, FIG. 6: lacrimal gland cell suspension, DCFH-DA. The procedure:
The action of the maqui berry extract to radical oxygen species in lacrimal gland tissue was evaluated using mice […].
The evaluation of the inhibitory action to radical oxygen species was done in the following way.
An isolated lacrimal gland was placed in a test tube, and 25 mg tissue/mL of cold phosphate-buffered saline (PBS) was added. After that, zirconia beads were added to the lacrimal gland that is to be crushed by a bead grinder. Then, 50 μL each of cell suspension was dispensed. Then, the maqui berry extract of Working Example 1 (1, 10 μg/mL) was added to the cell suspension, and then DCFH-DA solution as the radical oxygen series was added to make the final level of concentration at 75 μm. Then, after 60 minutes of incubation at 37 degrees Celsius, the cells were washed in PBS. The fluorescence-plate reader measured the intensity of fluorescence at (X485/528).
As a Comparative Example, the same test was done on lutein 10 μg/mL (compare and contrast).
Also, as a Comparative Example, the same test was done on the bilberry extract (Indena) and on the black currant extract (Tama Biochemical Co., Ltd.).
Furthermore, the same tests were done on the following examples.
Regarding Fr. 2: delphinidin-3,5-diglucoside (Working Example 3), Fr. 6: delphinidin-3-glucoside (Working Example 5) and delphinidin-3-rutinoside (Comparative Example 1: substance contained in cassis), the same evaluation as in Test Example 2 was done.
Regarding Fr. 6 delphinidin-3-glucoside (Working Example 5) and the other anthocyanin series (petunidin-3-glucoside, peonidin-3-glucoside, malvidin-3-glucoside and cyaniding-3-glucoside), the evaluation of Test Example 2 was done.

Molecules are shown by their SMILES.

Take `OC[C@H]1O[C@@H](Oc2cc3c(O[C@@H]4O[C@H](CO)[C@@H](O)[C@H](O)[C@H]4O)cc(O)cc3[o+]c2-c2cc(O)c(O)c(O)c2)[C@H](O)[C@@H](O)[C@@H]1O` [Fr. 2, Delphinidin-3,5-diglucoside]: the “amount of absorption of anthocyanin into the lacrimal cells, FIG. 14” value in series [1] is reported as “absorbed by the lacrimal cells more”. In series [2], the “inhibition of radical oxygen in lacrimal cells, FIG. 12” value (from here on “inhibition of radical oxygen … FIG. 12”) is “excellent inhibitory action” and the “inhibition of radical oxygen by isolated delphinidin glycosides, FIG. 6” value (“inhibition of radical oxygen … FIG. 6” for short) is recorded as “significantly inhibited”. Besides, the “action in inhibiting radical oxygen in lacrimal cells compared to other anthocyanins, FIG. 13” value in series [2] (comparison with petunidin-, peonidin-, malvidin- and cyanidin-3-glucoside) was “especially excellent action”.
Regarding `OC[C@H]1O[C@@H](Oc2cc3c(O)cc(O)cc3[o+]c2-c2cc(O)c(O)c(O)c2)[C@H](O)[C@@H](O)[C@@H]1O` [Fr. 6, Delphinidin-3-glucoside], in series [2], the “inhibition of radical oxygen … FIG. 12” value is “inhibited” and the “inhibition of radical oxygen … FIG. 6” value is listed as “significantly inhibited”.
Turning to `OC[C@H]1O[C@@H](Oc2cc(O)cc3[o+]c(-c4cc(O)c(O)c(O)c4)c(O[C@@H]4O[C@H](CO)[C@@H](O)[C@H](O)[C@H]4O[C@@H]4OC[C@@H](O)[C@H](O)[C@H]4O)cc23)[C@H](O)[C@@H](O)[C@@H]1O` [Fr. 1, Delphinidin-3sambubioside-5-glucoside], the “inhibition of radical oxygen … FIG. 6” value in series [2] is reported as “significantly inhibited”.
For the molecule `OC[C@H]1O[C@@H](Oc2cc3c(O)cc(O)cc3[o+]c2-c2cc(O)c(O)c(O)c2)[C@H](O[C@@H]2OC[C@@H](O)[C@H](O)[C@H]2O)[C@@H](O)[C@@H]1O` [Fr. 5, Delphinidin-3-sambubioside], in series [2], the “inhibition of radical oxygen … FIG. 6” value is “significantly inhibited”.
Regarding `CC1O[C@@H](OC[C@H]2OC(Oc3cc4c(O)cc(O)cc4[o+]c3-c3cc(O)c(O)c(O)c3)[C@H](O)C(O)C2O)C(O)C(O)[C@H]1O` (stereo partly drawn) [delphinidin-3-rutinoside, reference compound], the “inhibition of radical oxygen … FIG. 12” value in series [2] is “did not inhibit”.
